{"source": "patent US20150374709A1", "about": "“TETRA-SUBSTITUTED NDGA DERIVATIVES VIA ETHER BONDS AND CARBAMATE BONDS AND THEIR SYNTHESIS AND PHARMACEUTICAL USE” (ERIMOS PHARMACEUTICALS LLC, priority 2006, published 2015)", "format_in_all_cases": "cell-based", "key": {"Renal Cancer cell lines": {"tested_on": "Renal Cancer cell lines", "assay": "NCI DTP human tumor cell line screen, renal cancer panel", "conditions": "Renal Cancer (6 cell lines)", "description": "The United States National Cancer Institute (NCI) provides a developmental therapeutics program (DTP) (http://dtp.nci.nih.gov/branches/btb/ivelsp.html) to screen submitted substances in support of cancer drug discovery. The In Vitro Cell Line Screening Project (IVCLSP) is a dedicated service providing direct support to the DTP anticancer drug discovery program and is designed to screen up to 3,000 compounds per year for potential anticancer activity. The operation of this screen utilizes 60 different human tumor cell lines, representing leukemia, melanoma and cancers of the lung, colon, brain, ovary, breast, prostate, and kidney. The aim is to prioritize for farther evaluation, synthetic compounds or natural product samples showing selective growth inhibition or cell killing of particular tumor cell lines. This screen is unique in that the complexity of a 60 cell line dose response produced by a given compound results in a biological response pattern which can be utilized in pattern recognition algorithms (COMPARE program. See: http://dtp.nci.nih.gov/docs/compare/compare.html). Using these algorithms, it is possible to assign a putative mechanism of action to a test compound, or to determine that the response pattern is unique and not similar to that of any of the standard prototype compounds included in the NCI database. […]"}, "A549 (lung carcinoma)": {"tested_on": "A549 (lung carcinoma)", "assay": "MTS cell viability assay, A549", "conditions": "Homo sapiens, A549; MTS assay; read-out: A549 IC50", "description": "(§1) Studies performed regarding cytotoxicity included the well-known MTS, Trypan Blue and MTT protocols. The MTS studies were done using the CellTiter 96®AQueous One Solution Cell Proliferation Assay (Promega Corporation, Madison, Wis. USA). Metabolically active, namely viable, cells turn MTS, a tetrazolium compound (3-(4,5-dimethylthiazol-2-yl)-5-(3-carboxymethoxyphenyl)-2-(4-sulfophenyl)-2H-tetrazolium, inner salt) into colored formazan, which is soluble in tissue culture medium. The measurement of the absorbance of the formazan is read at 490 nm. The ready to use reagent is added directly to the cells in media in 96-well plates, incubated 1-4 hours and the results are recorded by the plate reader. The IC50 is estimated by graphing the gathered data. The IC50 is the concentration of the tested material that inhibits 50% of growth or viability of the tested material compared to a control.\n(§2) Three cell lines obtained from ATCC and maintained as directed by ATCC were tested: HeLa (cervical adenocarcinoma), A549 (lung carcinoma), and COS-7 (SV40 transformed monkey kidney). Studies of these cell lines are considered to be indicative of the effect of tested substances on mammalian, including human, diseases.\n(§3) All compounds were dissolved in DMSO and DMSO is used as the placebo. The samples were first dissolved into 10 mM dilutions in DMSO and then diluted further to 5, 1, 0.5, 0.1, 0.05, and 0.01 mM solutions. These solutions were added to the media at a 1% concentration (1 μl to 100 μl media) to treat the cells with 100, 50, 10, 5, 1, 0.5, and 0.1 μM of the compound. […] Solutions were checked before use for precipitation, especially the 10 mM solutions. If there was precipitation, they were warmed 65° C. and added to warmed media.\n(§4) Wells on a 96-well plate were seeded with 1.5-8×10^4 cells in 100 μl media and incubated overnight. The outside wells of the plate were filled with 200 μl sterile, deionized (DI) water to curb media evaporation. After 24 hours, test chemicals were prepared in media at a concentration of 1% media volume. The test sample media were added, mixing with pipette before adding 100 μl per well. Media was added to the “Media Only” wells. The well plate and its contents were incubated for 24-72 hours, depending on the study conducted. On the thy of the MTS assay, the MTS reagent was removed from the refrigerator and brought to room temperature. Using the multichannel pipette, 20 μl of the MTS reagent was added to each well and incubated for one to four hours. The plate was read at 490 nm with a reference wavelength of 690 nm after one hour in the incubator thereafter until the blank wells were at about 0.2 OD. The results were then scanned into a Microsoft® Excel® template designed to perform all necessary calculations whim data are entered. The data were checked for statistical errors; data points that are within 10% of the mean of the data points for that group were included. The average of the blanks (“Media Only”) were subtracted and the data were inserted into a chart that represents growth response, treated/untreated."}, "[1]": {"tested_on": "HeLa (cervical adenocarcinoma)", "assay": "MTS cell viability assay, HeLa", "conditions": "Homo sapiens, HeLa, MTS assay; read-out: HeLa IC50", "description": "as §1, §2, §3, §4"}}}
{"smiles": "C[C@H](Cc1ccc(OCCCN2CCCCC2)c(OCCCN2CCCCC2)c1)[C@@H](C)Cc1ccc(OCCCN2CCCCC2)c(OCCCN2CCCCC2)c1", "note": "[Compound A, 1,4-bis{3,4-bis[3-(piperidin-1-yl)propoxy]phenyl}-2,3-dimethyl-(2R,3S)-butane]", "values": [{"measurement": "Mean Growth Percent at 10 μM", "setting": "Renal Cancer cell lines", "result": "−95.54", "unit": "%"}, {"measurement": "IC50", "setting": "A549 (lung carcinoma)", "result": "800 to 900", "unit": "nM"}, {"measurement": "IC50", "setting": "[1]", "result": "2000 to 3000", "unit": "nM"}]}
